Assay results taken from article PMC10817531, “Chlorinated Enyne Fatty Acid Amides from a Marine Cyanobacterium: Discovery of Taveuniamides L-M and Pharmacological Characterization of Taveuniamide F as a GPCR Antagonist with CNR1 Selectivity” (Marine Drugs, 2023).
Several values for one entry are separate records, joined by “and”; a condition that tells them apart may be missing. Equal values may be shown once.

Key:
Assay in all cases: PathHunter β-arrestin GpcrMAX assay
Assay type in all cases: cell-based
CHRM4 = biological target: T1, CHRM4 (Homo sapiens, UniProt P08173)
T1 construct: host or cells: CHO-K1
T1 sequence (P08173 1-479): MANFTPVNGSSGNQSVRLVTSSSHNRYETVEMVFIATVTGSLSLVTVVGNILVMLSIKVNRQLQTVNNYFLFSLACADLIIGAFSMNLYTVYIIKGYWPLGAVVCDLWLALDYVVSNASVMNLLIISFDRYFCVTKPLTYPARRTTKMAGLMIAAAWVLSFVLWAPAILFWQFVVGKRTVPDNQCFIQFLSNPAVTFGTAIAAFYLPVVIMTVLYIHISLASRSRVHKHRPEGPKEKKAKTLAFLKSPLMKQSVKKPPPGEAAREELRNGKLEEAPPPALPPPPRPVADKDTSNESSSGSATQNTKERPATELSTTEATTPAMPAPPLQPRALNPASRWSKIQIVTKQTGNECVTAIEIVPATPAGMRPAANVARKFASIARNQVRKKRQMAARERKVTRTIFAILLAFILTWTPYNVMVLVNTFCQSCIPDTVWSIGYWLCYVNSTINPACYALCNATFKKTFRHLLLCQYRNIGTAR
Description: (§1) GpcrMAX panel biosensor assays were used to characterize taveuniamide F (4, 20 µM) (agonist and antagonist mode). The experiments were carried out by DiscoveRx Corporation (Fremont, CA, USA) as described before, using PathHunter β-arrestin enzyme fragment complementation (EFC) technology.
(§2) Dose–response curves were obtained by subjecting taveuniamide F (4) to a secondary antagonist screen utilizing ten GPCR biosensor assays (Arrestin) against the following targets: GPR119, NPSR1b, HTR2C, CCR9, CHRM4, GPR120, HTR2A, GPR103, CNR1, and CNR2. Stably transfected HEK293 cells expressing GPR119, U2OS cells expressing NPSR1b, HTR2C and HTR2A, and CHO-K1 cells expressing the rest of the mentioned receptors, were incubated with 4 for 30 min. The assays were performed at 10-point concentrations using 3-fold serial dilutions in duplicate, where the highest concentration was 50 µM.

GPR120 = biological target: T2, GPR120 (Homo sapiens, UniProt Q5NUL3)
T2 construct: host or cells: CHO-K1
T2 sequence (Q5NUL3 1-361): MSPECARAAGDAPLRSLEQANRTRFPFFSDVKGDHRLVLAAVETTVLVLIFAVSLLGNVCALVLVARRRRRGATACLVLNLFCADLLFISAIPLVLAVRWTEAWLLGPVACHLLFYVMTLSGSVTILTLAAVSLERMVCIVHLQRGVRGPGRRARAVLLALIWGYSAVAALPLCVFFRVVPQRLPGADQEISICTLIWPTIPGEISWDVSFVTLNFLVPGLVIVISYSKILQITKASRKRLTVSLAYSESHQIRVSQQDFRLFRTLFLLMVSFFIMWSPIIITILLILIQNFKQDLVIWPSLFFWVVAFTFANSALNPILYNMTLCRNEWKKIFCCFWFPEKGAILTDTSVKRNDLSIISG
Description: as §1, §2

GPR103 = biological target: T3, GPR103 (Homo sapiens, UniProt Q96P65)
T3 construct: host or cells: CHO-K1
T3 sequence (Q96P65 1-431): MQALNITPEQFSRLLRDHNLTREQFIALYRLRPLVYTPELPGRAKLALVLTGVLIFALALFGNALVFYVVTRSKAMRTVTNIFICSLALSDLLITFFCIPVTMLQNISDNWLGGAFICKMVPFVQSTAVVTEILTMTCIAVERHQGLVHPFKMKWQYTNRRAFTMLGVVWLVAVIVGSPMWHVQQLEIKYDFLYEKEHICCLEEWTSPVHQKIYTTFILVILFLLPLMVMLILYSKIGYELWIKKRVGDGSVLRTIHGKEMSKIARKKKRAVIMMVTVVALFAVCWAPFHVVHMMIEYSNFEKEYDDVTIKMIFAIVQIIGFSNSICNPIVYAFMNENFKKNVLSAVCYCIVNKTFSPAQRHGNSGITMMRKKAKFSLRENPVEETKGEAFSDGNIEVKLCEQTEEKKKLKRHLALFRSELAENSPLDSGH
Description: as §1, §2

NPSR1b = biological target: T4, NPSR1b (Homo sapiens, UniProt Q6W5P4)
T4 construct: β-galactosidase enzyme fragment for EFC (ProLink by own knowledge); host or cells: U2OS
T4 sequence (Q6W5P4 1-377 isoform Q6W5P4-4): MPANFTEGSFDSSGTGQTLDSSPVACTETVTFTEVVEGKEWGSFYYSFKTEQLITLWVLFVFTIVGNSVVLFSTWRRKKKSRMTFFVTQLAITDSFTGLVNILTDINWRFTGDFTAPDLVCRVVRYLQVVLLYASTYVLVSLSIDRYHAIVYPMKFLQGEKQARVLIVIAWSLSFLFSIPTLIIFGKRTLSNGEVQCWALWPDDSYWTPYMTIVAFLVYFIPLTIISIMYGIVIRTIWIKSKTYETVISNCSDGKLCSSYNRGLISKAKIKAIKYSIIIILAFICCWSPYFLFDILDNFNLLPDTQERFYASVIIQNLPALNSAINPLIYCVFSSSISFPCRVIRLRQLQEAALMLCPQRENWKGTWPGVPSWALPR
Description: as §1, §2

[1] = antagonist dose–response, 10-point, CHO-K1 cells, 30 min
[2] = antagonist mode (% inhibition), 20 µM

- IC50 (CHRM4; [1]): 1.9 µM and 1.92 µM
- inhibition (CHRM4; [2]): ≥ 80%
- inhibition at 20 µM (CHRM4; [2]): 98.2%
- IC50 (GPR120; [1]): 4.7 µM and 4.72 µM
- inhibition (GPR120; [2]): ≥ 80%
- inhibition at 20 µM (GPR120; [2]): 96.9%
- IC50 (GPR103; [1]): 14 µM and 14.1 µM
- inhibition (GPR103; [2]): ≥ 80%
- inhibition at 20 µM (GPR103; [2]): 79.8%
- IC50 (NPSR1b; antagonist dose–response, 10-point, U2OS cells, 30 min): 4.4 µM and 4.36 µM
- inhibition (NPSR1b; [2]): 102% and ≥ 80%
Structure (SMILES): CC(=O)N[C@@H](CCCC#C/C=C/Cl)CCCCCCC(Cl)Cl [Compound 4, taveuniamide F]
